Assay results taken from patent US11739070B2, “C5A receptor modulators” (IDORSIA PHARMACEUTICALS LTD, priority 2018, dated 2023).

Molecular target: T1, C5AR1 (Homo sapiens, UniProt P21730)
T1 construct: host or cells: CHO-K1
T1 sequence (P21730 1-350): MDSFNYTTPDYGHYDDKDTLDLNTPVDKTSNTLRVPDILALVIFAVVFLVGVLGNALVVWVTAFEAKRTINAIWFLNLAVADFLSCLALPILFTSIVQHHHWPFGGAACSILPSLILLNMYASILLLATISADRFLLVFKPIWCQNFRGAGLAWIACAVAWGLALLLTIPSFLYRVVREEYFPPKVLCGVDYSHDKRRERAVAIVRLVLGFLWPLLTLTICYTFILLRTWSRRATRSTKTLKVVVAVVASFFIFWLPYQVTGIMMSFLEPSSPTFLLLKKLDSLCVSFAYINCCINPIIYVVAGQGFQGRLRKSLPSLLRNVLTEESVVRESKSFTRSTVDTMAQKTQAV
Experiment: hC5a DISCO IC50 assay (PathHunter beta-arrestin, antagonist mode)
Type: cell-based
Conditions: CHO-K1 C5AR1 beta-arrestin cell line; antagonist vs 1-10 nM C5a agonist; geometric mean values; read-out: C5aR IC50
Outline: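 Antagonist added first, then 1-10 nM C5a agonist; cells incubated 1.5 h at 37 °C. Beta-arrestin signal developed with PathHunter detection reagent, 45 min at RT. IC50 in nmol/l from serial antagonist dilutions, reported as geometric mean of several measurements.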

| IC50 [nM] | SMILES |
| --- | --- |
| 360 | COc1cccc2c1n(Cc1ccccc1C(F)(F)F)c(=O)n2[C@@H]1CCN(c2c(F)cccc2CN2CCC2)C1 [Example 108, 1-[(R)-1-(2-Azetidin-1-ylmethyl-6-fluoro-phenyl)-pyrrolidin-3-yl]-4-methoxy-3-(2-trifluoromethyl-benzyl)-1,3-dihydro-benzoimidazol-2-one] |
| 2240 | COc1ncncc1Cn1c(=O)n(C2CCN(c3c(F)cccc3C#N)CC2)c2cccc(OC)c21 [Example 113, 3-Fluoro-2-{4-[4-methoxy-3-(4-methoxy-pyrimidin-5-ylmethyl)-2-oxo-2,3-dihydro-benzoimidazol-1-yl]-piperidin-1-yl}-benzonitrile] |
| 642 | COc1cccc2c1n(Cc1ccccc1C(F)(F)F)c(=O)n2[C@@H]1CCN(C(C)C)C1 [Example 32, 1-((R)-1-Isopropyl-pyrrolidin-3-yl)-4-methoxy-3-(2-trifluoromethyl-benzyl)-1,3-dihydro-benzoimidazol-2-one] |
| 7 | COc1cccc2c1n(Cc1ccccc1C(F)(F)F)c(=O)n2[C@@H]1CCN(c2c(C)ccnc2F)C1 [Example 37, 1-[(R)-1-(2-Fluoro-4-methyl-pyridin-3-yl)-pyrrolidin-3-yl]-4-methoxy-3-(2-trifluoromethyl-benzyl)-1,3-dihydro-benzoimidazol-2-one] |
| 118 | COc1cccc2c1n(Cc1ccccc1C(F)(F)F)c(=O)n2C1CC2CC1CN2c1c(C)cccc1F (stereo not shown) [Example 190, 1-[2-(2-Fluoro-6-methyl-phenyl)-2-aza-bicyclo[2.2.1]hept-5-yl]-4-methoxy-3-(2-trifluoromethyl-benzyl)-1,3-dihydro-benzoimidazol-2-one] |
| 62 | COc1cccc(C)c1N1CC[C@@H](n2c(=O)n(Cc3ccccc3C(F)(F)F)c3c(OC)nccc32)C1 [Example 51, 4-Methoxy-1-[(R)-1-(2-methoxy-6-methyl-phenyl)-pyrrolidin-3-yl]-3-(2-trifluoromethyl-benzyl)-1,3-dihydro-imidazo[4,5-c]pyridin-2-one] |
| 18 | COc1cccc2c1n(Cc1ccccc1C(F)(F)F)c(=O)n2C1CCN(c2c(C)cccc2C)CC1 [Example 2, 1-[1-(2,6-Dimethyl-phenyl)-piperidin-4-yl]-4-methoxy-3-(2-trifluoromethyl-benzyl)-1,3-dihydro-benzoimidazol-2-one] |
| 629 | COc1cccc2c1n(Cc1ccccc1C(F)(F)F)c(=O)n2[C@@H]1CCN(c2c(C#N)c(C)nn2C)C1 [Example 87, 5-{(R)-3-[4-Methoxy-2-oxo-3-(2-trifluoromethyl-benzyl)-2,3-dihydro-benzoimidazol-1-yl]-pyrrolidin-1-yl}-1,3-dimethyl-1H-pyrazole-4-carbonitrile] |
| 19 | COc1cccc2c1n(Cc1ccccc1OC1CC1)c(=O)n2[C@@H]1CCN(c2c(C)cccc2F)C1 [Example 208, 3-(2-Cyclopropoxy-benzyl)-1-[(R)-1-(2-fluoro-6-methyl-phenyl)-pyrrolidin-3-yl]-4-methoxy-1,3-dihydro-benzoimidazol-2-one] |
| 259 | COc1cccc2c1n(Cc1ccccc1C(F)(F)F)c(=O)n2C1CCN(C(=O)OC(C)(C)C)CC1(C)C (stereo not shown) [Example 228, 4-[4-Methoxy-2-oxo-3-(2-trifluoromethyl-benzyl)-2,3-dihydro-benzoimidazol-1-yl]-3,3-dimethyl-piperidine-1-carboxylic acid tert-butyl ester] |
| 111 | Cc1cccc(F)c1N1CCC(n2c(=O)n(Cc3ccccc3C(F)(F)F)c3c(C)cccc32)CC1 [Example 245, 1-[1-(2-Fluoro-6-methyl-phenyl)-piperidin-4-yl]-4-methyl-3-(2-trifluoromethyl-benzyl)-1,3-dihydro-benzoimidazol-2-one] |
| 39 | COc1cccc2c1n(Cc1ccccc1C(F)(F)F)c(=O)n2C1CCN(c2c(C)ccnc2C#N)CC1 [Example 246, 4-[4-Methoxy-2-oxo-3-(2-trifluoromethyl-benzyl)-2,3-dihydro-benzoimidazol-1-yl]-4′-methyl-3,4,5,6-tetrahydro-2H-[1,3′]bipyridinyl-2′-carbonitrile] |
| 182 | COc1ccnc(OC)c1N1CCC(n2c(=O)n(Cc3ccccc3C(F)(F)F)c3c(OC)cccc32)CC1 [Example 248, 1-(2′,4′-Dimethoxy-3,4,5,6-tetrahydro-2H-[1,3′]bipyridinyl-4-yl)-4-methoxy-3-(2-trifluoromethyl-benzyl)-1,3-dihydro-benzoimidazol-2-one] |
| 8 | COc1nccc(C)c1N1CC[C@@H](n2c(=O)n(Cc3ccccc3C(F)(F)F)c3c(OC)cccc32)C1 [Example 33, 4-Methoxy-1-[(R)-1-(2-methoxy-4-methyl-pyridin-3-yl)-pyrrolidin-3-yl]-3-(2-trifluoromethyl-benzyl)-1,3-dihydro-benzoimidazol-2-one] |
| 28 | COc1cccc2c1n(Cc1ccccc1C(F)(F)F)c(=O)n2[C@@H]1CCN(c2c(F)cccc2C#N)C1 [Example 82, 3-Fluoro-2-{(R)-3-[4-methoxy-2-oxo-3-(2-trifluoromethyl-benzyl)-2,3-dihydro-benzoimidazol-1-yl]-pyrrolidin-1-yl}-benzonitrile] |
| 20 | COc1cccc2c1n(Cc1cccnc1C(F)(F)F)c(=O)n2[C@@H]1CCN(c2c(C)cccc2F)C1 [Example 195, 1-[(R)-1-(2-Fluoro-6-methyl-phenyl)-pyrrolidin-3-yl]-4-methoxy-3-(2-trifluoromethyl-pyridin-3-ylmethyl)-1,3-dihydro-benzoimidazol-2-one] |
| 109 | COc1cccc2c1n(Cc1c(F)cc(F)cc1OC(C)C)c(=O)n2[C@@H]1CCN(c2c(C)cccc2F)C1 [Example 220, 3-(2,4-Difluoro-6-isopropoxy-benzyl)-1-[(R)-1-(2-fluoro-6-methyl-phenyl)-pyrrolidin-3-yl]-4-methoxy-1,3-dihydro-benzoimidazol-2-one] |
| 227 | COCCN(C)Cc1cccc(F)c1N1CC[C@@H](n2c(=O)n(Cc3ccccc3C(F)(F)F)c3c(OC)cccc32)C1 [Example 139, 1-[(R)-1-(2-Fluoro-6-{[(2-methoxy-ethyl)-methyl-amino]-methyl}-phenyl)-pyrrolidin-3-yl]-4-methoxy-3-(2-trifluoromethyl-benzyl)-1,3-dihydro-benzoimidazol-2-one] |
| 12 | Cc1cccc(C)c1N1CC[C@@H](n2c(=O)n(Cc3ccccc3C(F)(F)F)c3c(OCCO)nccc32)C1 [Example 119, 1-[(R)-1-(2,6-Dimethyl-phenyl)-pyrrolidin-3-yl]-4-(2-hydroxy-ethoxy)-3-(2-trifluoromethyl-benzyl)-1,3-dihydro-imidazo[4,5-c]pyridin-2-one] |
| 30 | COc1cccc2c1n(Cc1ccccc1OC(F)(F)F)c(=O)n2[C@@H]1CCN(c2c(C)cccc2C)C1 [Example 22, 1-[(R)-1-(2,6-Dimethyl-phenyl)-pyrrolidin-3-yl]-4-methoxy-3-(2-trifluoromethoxy-benzyl)-1,3-dihydro-benzoimidazol-2-one] |
| 14 | COc1cccc2c1n(Cc1ncccc1OC(C)C)c(=O)n2C1CCN(c2c(C)cccc2F)CC1 [Example 183, 1-[1-(2-Fluoro-6-methyl-phenyl)-piperidin-4-yl]-3-(3-isopropoxy-pyridin-2-ylmethyl)-4-methoxy-1,3-dihydro-benzoimidazol-2-one] |
| 2 | COc1cccc2c1n(Cc1ncccc1C(F)(F)F)c(=O)n2[C@@H]1CCN(c2c(C)cccc2F)C1 [Example 202, 1-[(R)-1-(2-Fluoro-6-methyl-phenyl)-pyrrolidin-3-yl]-4-methoxy-3-(3-trifluoromethyl-pyridin-2-ylmethyl)-1,3-dihydro-benzoimidazol-2-one] |
| 469 | COc1cccc2c1n(Cc1ccccc1C(F)(F)F)c(=O)n2C1CN(C(=O)OC(C)(C)C)C1 [Example 213, 3-[4-Methoxy-2-oxo-3-(2-trifluoromethyl-benzyl)-2,3-dihydro-benzoimidazol-1-yl]-azetidine-1-carboxylic acid tert-butyl ester] |
| 132 | COc1cccc(F)c1N1CC[C@@H](n2c(=O)n(Cc3ccccc3C(F)(F)F)c3c(OC)nccc32)C1 [Example 49, 1-[(R)-1-(2-Fluoro-6-methoxy-phenyl)-pyrrolidin-3-yl]-4-methoxy-3-(2-trifluoromethyl-benzyl)-1,3-dihydro-imidazo[4,5-c]pyridin-2-one] |
| 470 | COc1cncc(OC)c1N1CC[C@@H](n2c(=O)n(Cc3ccccc3C(F)(F)F)c3c(OC)cccc32)C1 [Example 38, 1-[(R)-1-(3,5-Dimethoxy-pyridin-4-yl)-pyrrolidin-3-yl]-4-methoxy-3-(2-trifluoromethyl-benzyl)-1,3-dihydro-benzoimidazol-2-one] |
| 195 | COc1cccnc1N1CCC(n2c(=O)n(Cc3ccccc3C(F)(F)F)c3c(OC)cccc32)CC1 [Example 233, 4-Methoxy-1-(3′-methoxy-3,4,5,6-tetrahydro-2H-[1,2′]bipyridinyl-4-yl)-3-(2-trifluoromethyl-benzyl)-1,3-dihydro-benzoimidazol-2-one] |
| 42 | COc1nccc2c1n(Cc1ccccc1C(F)(F)F)c(=O)n2[C@@H]1CCN(c2c(C)cccc2F)C1 [Example 50, 1-[(R)-1-(2-Fluoro-6-methyl-phenyl)-pyrrolidin-3-yl]-4-methoxy-3-(2-trifluoromethyl-benzyl)-1,3-dihydro-imidazo[4,5-c]pyridin-2-one] |
| 11 | COc1cccc2c1n(Cc1ccccc1C(F)(F)F)c(=O)n2[C@@H]1CCN(c2c(F)cccc2F)C1 [Example 7, 1-[(R)-1-(2,6-Difluoro-phenyl)-pyrrolidin-3-yl]-4-methoxy-3-(2-trifluoromethyl-benzyl)-1,3-dihydro-benzoimidazol-2-one] |
